# Source: patent US20080031868A1, “HUMAN LYSOZYME MEDICINE, ITS MANUFACTURING METHOD AND APPLICATION THEREOF” (priority 2005, published 2008)
# Key:
# HELA cell = assay: Toxicity to HELA cell (CPE, Reed-Muench); settings: 6 days
# Description: 1. Determination of the Toxicity of Recombinant Human Lysozyme to HELA Cell:
# HELA cells were seeded on 96-well culture plates at the concentration of 400,000/mi and grown at 37° C. in a 5% CO2 incubator for 2 hours. 100 μl recombinant human lysozyme which were double-diluted from 6000 ug/ml to 11.7 ug/ml and positive reference medicine which were double-diluted from 6000 ug/ml to 11.7 ug/ml were respectively added to 3 wells per concentration. At the same time the reference cells were cultivated at 37° C. in a 5% CO2 incubator for 6 days. Inverted microscope was used everyday to observe the cytopathic effect (CPE). The cytopathic effect under 25% was recorded as “+”, the cytopathic effect under 26%˜50% was recorded as “++”, the cytopathic effect under 51%˜75% was recorded as “+++” and the cytopathic effect under 76%˜100% was recorded as “++++”. Drug median toxic dose (TD50) and minimum toxic dose (TD0) were calculated by using Reed-Muench method.
# No. 04 Coronavirus [1] = assay: Inhibition on No. 04 Coronavirus in HELA cells (CPE method); assay type: cell-based; settings: 2 h
# Description: HELA cells were seeded on 96-well cultivation plates at the concentration of 400,000/ml and grown to monolayer at 37° C. in 5% CO2 incubator for 24 hours. After removal of cultivation liquid, coronavirus liquid were added to HELA cells and absorbed at 37° C. in 5% CO2 incubator for 2 hours. […] At the same time reference cells and reference virous were cultivated at 37° C. in 5% CO2 incubator for 5 to 7 days. Inverted microscope was used everyday to observe the cytopathic effect (CPE) of virus. The determination were ended according to the appearance of “+++-++++”. […] The determination was repeated three times.
# No. 04 Coronavirus [2] = assay: organism not typed; assay type: cell-based
# Description: HELA cells were seeded on 96-well cultivation plates at the concentration of 400,000/ml and grown to monolayer at 37° C. in 5% CO2 incubator for 24 hours. […] Then 100 TCID50coronavirus liquid were added to HELA cells. At the same time reference cell and reference virous were cultivated at 37° C. in 5% CO2 incubator for 5 to 7 days. At the same time normal cell reference and virous reference were cultivated at 37° C. in 5% CO2 incubator for 5 to 7 days. Inverted microscope was used everyday to observe the cytopathic effect (CPE) of virus. The determination were ended according to the appearance of “+++-++++”. […] The determination was repeated three times.
# [3] = read-out: minimum inhibitory concentration (MIC)
# [4] = HeLa, read-out: median inhibitory concentration (IC50)
compound,measurement,setting,value
"Nc1nc(O)c2ncn(COC(CO)CO)c2n1 [Ganciclovir, reference compound]",minimum toxic dose (TD0),"HELA cell; HELA cells, CPE, Reed-Muench",6000 ± 0 µg/mL
same,median toxic dose (TD50),HELA cell; human,6000 ± 0 µg/mL
same,MIC,No. 04 Coronavirus [1]; [3],23.4 µg/mL
same,IC50,No. 04 Coronavirus [1]; [4],11.7 µg/mL
same,IC50,No. 04 Coronavirus [2]; [4],11.7 µg/mL
same,MIC,No. 04 Coronavirus [2]; [3],23.4 µg/mL
